Where “and” joins values, the source holds several entries; their conditions need not be identical. Equal values may be shown once.
System: 323965-272-R-J2-PDC complex spheroid viability
Experiment: Anticancer human tumor 323965-272-R-J2-PDC patient-derived pancreatic carcinoma cell line growth inhibition [CLK]
Details: for viability, T/C: stronger effect = lower value
Text: A high-throughput screen of multi-cell type tumor spheroids was designed to identify active combinations of […] and targeted small molecules. Complex spheroids include a stromal component modeled by human endothelial cells (HUVEC) and fibroblasts modeled by human mesenchymal stem cells (MSCs). The concentration ranges selected for each drug and investigational agent were based upon clinically achievable concentrations if the clinical Cmax of the agent was known.
Compounds. The drugs and investigational agents: cirtuvivint (SM08502; NSC835563), CC-671 (NSC850746), vemurafenib (NSC761431), tapotoclax (NSC804041), sotorasib (NSC818433), adagrasib (NSC831453), MRTX-1133 (NSC836407), BAY2416964 (NSC825713), copanlisib (NSC816437), inavolisib (NSC800729), abemaciclib (NSC768073), osimertinib (NSC779217), entinostat (NSC756642), eltanexor (KPT-8602, NSC794443), venetoclax (NSC766270), ceralasertib (NSC777638), bortezomib (NSC756655), olaparib (NSC753686), talazoparib (NSC767125), alisertib (NSC759677), peposertib (NSC802822), gemcitabine (NSC613327), 5-fluorouracil (NSC19893), SN-38 (NSC673596), oxaliplatin (NSC266046), paclitaxel (NSC125973), and doxorubicin (NSC123127), were obtained from the National Cancer Institute (NCI) Developmental Therapeutics Program Chemical Repository. The FDA-approved anticancer drug set is available from the Developmental Therapeutics Program at https://dtp.cancer.gov/organization/dscb/obtaining/available plates.htm. […] The stock solutions were prepared in dimethyl sulfoxide (DMSO, Sigma-Aldrich, St. Louis, MO, cat. D2650), except for the platinum complexes which were prepared in saline (Quality Biological, Gaithersburg, MD, cat. 114-055-101), at 800-fold the tested concentration and stored at -70 degrees C prior to their use. All drugs and investigational agents were tested over a range starting from a high concentration at or near the clinical Cmax and decreasing in half-log increments. If the clinical Cmax for an agent had not been determined, the highest concentration tested was 10 microM.
Cell Culture. All cells were maintained in an incubator at 37 degrees C and 5% CO2 with 95% humidity. The PDC lines were cultured according to standard operating procedures established by the NCI PDMR. Briefly, all PDCs were thawed and cultured in Matrigel-coated flasks prepared with a working solution of 1X Ham's F-12 nutrient mix, without supplementation (Invitrogen, Waltham, MA, cat. 11765054), 100 U/mL penicillin-streptomycin (Invitrogen, cat. 15140122), and 2.5% Matrigel (Corning Inc., Corning, NY, cat. 354248) for the first three passages. The 947758-054-R-J2-PDC line was cultured in 6B/Colon 1A media, which includes advanced DMEM/F-12 (Thermo Fisher Scientific, cat. 12634028), 10 mM HEPES (Thermo Fisher Scientific, cat. 15630080), 1X GlutaMAX supplement (Thermo Fisher Scientific, cat. 35050061), 0.1 mg/mL primocin (InvivoGen, cat. ant-pm-2), 10% defined fetal bovine serum, heat inactivated (HyClone Laboratories Inc., cat. SH30070.03HI), 1.25 mM N-Acetyl-L-cysteine (Sigma-Aldrich, cat. A9165), 10 mM nicotinamide (Sigma-Aldrich, cat. N0636), 1X B-27 supplement (Thermo Fisher Scientific, cat. 17504044), 1X N-2 supplement (Thermo Fisher Scientific, cat. 17502048), and 10 microM Y-27632 dihydrochloride (Tocris Bioscience, cat. 1254). The 876862-298-R-J1-PDC was cultured in 6E media, which includes all 6B/Colon 1A media components plus 50% L-WRN conditioned media (ATCC, cat. CRL-3276), 50 ng/mL recombinant human EGF recombinant protein (hEGF; Thermo Fisher Scientific, cat. PHG0311), 10 ng/mL recombinant human fibroblast growth factor 10 (hGFG-10; PeproTech, cat. 100-26), 1 ng/mL recombinant human fibroblast growth factor 2 (hFGF-2; PeproTech, cat. 100-18B), and 1 µM prostaglandin E2 (PGE2; Tocris, cat. 2296). The 227483-062-R1-J1-PDC line was cultured in Panc media, containing all 6E components except hFGF-2, with the addition of 500 nM SB-431542 (Selleckchem, cat. S1067) and 10 nM gastrin (Tocris, cat. 3006). […]

[1] = curve of first compound, second compound 0.0316 µM
[2] = curve of first compound, second compound 0.1 µM
[3] = curve of first compound, second compound 0.316 µM
[4] = curve of first compound, second compound 1 µM
[5] = curve of first compound, second compound 3.16 µM
[6] = curve of first compound, second compound 10 µM
[7] = second compound 0.0316 µM, first compound 0.0316 µM
[8] = second compound 0.0316 µM, first compound 0.1 µM
[9] = second compound 0.0316 µM, first compound 0.316 µM
[10] = second compound 0.0316 µM, first compound 1 µM
[11] = second compound 0.0316 µM, first compound 3.16 µM
[12] = second compound 0.0316 µM, first compound 10 µM
[13] = second compound 0.1 µM, first compound 0.0316 µM
[14] = second compound 0.1 µM, first compound 0.1 µM
[15] = second compound 0.1 µM, first compound 0.316 µM
[16] = second compound 0.1 µM, first compound 1 µM
[17] = second compound 0.1 µM, first compound 3.16 µM
[18] = second compound 0.1 µM, first compound 10 µM
[19] = second compound 0.316 µM, first compound 0.0316 µM
[20] = second compound 0.316 µM, first compound 0.1 µM
[21] = second compound 0.316 µM, first compound 0.316 µM
[22] = second compound 0.316 µM, first compound 1 µM
[23] = second compound 0.316 µM, first compound 3.16 µM
[24] = second compound 0.316 µM, first compound 10 µM
[25] = second compound 1 µM, first compound 0.0316 µM
[26] = second compound 1 µM, first compound 0.1 µM
[27] = second compound 1 µM, first compound 0.316 µM
[28] = second compound 1 µM, first compound 1 µM
[29] = second compound 1 µM, first compound 3.16 µM
[30] = second compound 1 µM, first compound 10 µM
[31] = second compound 3.16 µM, first compound 0.0316 µM
[32] = second compound 3.16 µM, first compound 0.1 µM
[33] = second compound 3.16 µM, first compound 0.316 µM
[34] = second compound 3.16 µM, first compound 1 µM
[35] = second compound 3.16 µM, first compound 3.16 µM
[36] = second compound 3.16 µM, first compound 10 µM
[37] = second compound 10 µM, first compound 0.0316 µM
[38] = second compound 10 µM, first compound 0.1 µM
[39] = second compound 10 µM, first compound 0.316 µM
[40] = second compound 10 µM, first compound 1 µM
[41] = second compound 10 µM, first compound 3.16 µM
[42] = second compound 10 µM, first compound 10 µM
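Further: spheroids exposed to agents for seven days before readout.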
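Wherever viability, T/C is given: percent of DMSO vehicle control wells so 100% = untreated growth.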

O=c1[nH]cc(F)c(=O)[nH]1 + CNC(=O)c1ccc(Nc2nc(OC3CCCC3)c3c(-c4ccc5nc(C)oc5c4)c[nH]c3n2)c(OC)c1
IC50 [1]: > 10 µM
IC50 [2]: > 10 µM
IC50 [3]: 1.9 µM
IC50 [4]: < 0.0316 µM
IC50 [5]: < 0.0316 µM
IC50 [6]: < 0.0316 µM
viability, T/C [7]: 84.2%
viability, T/C [8]: 91.9%
viability, T/C [9]: 110%
viability, T/C [10]: 91.4%
viability, T/C [11]: 73.8%
viability, T/C [12]: 55.4%
viability, T/C [13]: 85.1%
viability, T/C [14]: 80.5%
viability, T/C [15]: 72.4%
viability, T/C [16]: 65.6%
viability, T/C [17]: 57.3%
viability, T/C [18]: 53.1%
viability, T/C [19]: 59.2%
viability, T/C [20]: 59.9%
viability, T/C [21]: 57.8%
viability, T/C [22]: 48.3%
viability, T/C [23]: 50.6%
viability, T/C [24]: 41.6%
viability, T/C [25]: 43.9%
viability, T/C [26]: 41.1%
viability, T/C [27]: 48.1%
viability, T/C [28]: 38.2%
viability, T/C [29]: 34.7%
viability, T/C [30]: 29.3%
viability, T/C [31]: 40.6%
viability, T/C [32]: 36.8%
viability, T/C [33]: 37.4%
viability, T/C [34]: 36.9%
viability, T/C [35]: 29.5%
viability, T/C [36]: 27.2%
viability, T/C [37]: 37.8%
viability, T/C [38]: 42.7%
viability, T/C [39]: 38.9%
viability, T/C [40]: 37.6%
viability, T/C [41]: 31.4%
viability, T/C [42]: 31.3%

Nc1ccn(C2OC(CO)C(O)C2(F)F)c(=O)n1 (configuration not stated) + CNC(=O)c1ccc(Nc2nc(OC3CCCC3)c3c(-c4ccc5nc(C)oc5c4)c[nH]c3n2)c(OC)c1
IC50 [1]: < 0.0316 µM
IC50 [2]: < 0.0316 µM
IC50 [3]: < 0.0316 µM
IC50 [4]: < 0.0316 µM
IC50 [5]: < 0.0316 µM
IC50 [6]: < 0.0316 µM
viability, T/C [7]: 30.7%
viability, T/C [8]: 33%
viability, T/C [9]: 30.3%
viability, T/C [10]: 27.9%
viability, T/C [11]: 27.9%
viability, T/C [12]: 30.4%
viability, T/C [13]: 37.4%
viability, T/C [14]: 33.3%
viability, T/C [15]: 26%
viability, T/C [16]: 32.3%
viability, T/C [17]: 30.2%
viability, T/C [18]: 32.1%
viability, T/C [19]: 32.9%
viability, T/C [20]: 27.8%
viability, T/C [21]: 25.4%
viability, T/C [22]: 27.8%
viability, T/C [23]: 28.1%
viability, T/C [24]: 25.2%
viability, T/C [25]: 24.2%
viability, T/C [26]: 21.4%
viability, T/C [27]: 21.4%
viability, T/C [28]: 18.9%
viability, T/C [29]: 17.8%
viability, T/C [30]: 18.9%
viability, T/C [31]: 25.6%
viability, T/C [32]: 22.8%
viability, T/C [33]: 21.6%
viability, T/C [34]: 21.2%
viability, T/C [35]: 19.7%
viability, T/C [36]: 18.2%
viability, T/C [37]: 26.7%
viability, T/C [38]: 23%
viability, T/C [39]: 24.2%
viability, T/C [40]: 21.1%
viability, T/C [41]: 22%
viability, T/C [42]: 15.8%

COC1C=CCC(C)C(C)S(=O)(=O)NC(=O)c2ccc3c(c2)N(CC2CCC21)CC1(CCCc2cc(Cl)ccc21)CO3 (configuration not stated) + CN1CCN(c2cc(C(=O)Nc3cc4cc(-c5cnn(C)c5)ccc4cn3)ccn2)CC1
IC50 [1]: 0.841 µM
IC50 [2]: 0.456 µM
IC50 [3]: < 0.0316 µM
IC50 [4]: < 0.0316 µM
IC50 [5]: < 0.0316 µM
IC50 [6]: < 0.0316 µM
viability, T/C [7]: 97.8%
viability, T/C [8]: 92.1%
viability, T/C [9]: 62%
viability, T/C [10]: 47.8%
viability, T/C [11]: 30%
viability, T/C [12]: 12.3%
viability, T/C [13]: 72.5%
viability, T/C [14]: 67%
viability, T/C [15]: 53.5%
viability, T/C [16]: 39.1%
viability, T/C [17]: 28.9%
viability, T/C [18]: 10.4%
viability, T/C [19]: 27.5%
viability, T/C [20]: 26.2%
viability, T/C [21]: 21.1%
viability, T/C [22]: 17.7%
viability, T/C [23]: 15.1%
viability, T/C [24]: 9.86%
viability, T/C [25]: 3.35%
viability, T/C [26]: 4.19%
viability, T/C [27]: 4.18%
viability, T/C [28]: 3.31%
viability, T/C [29]: 1.96%
viability, T/C [30]: 2.43%
viability, T/C [31]: 3.51%
viability, T/C [32]: 3.78%
viability, T/C [33]: 3.33%
viability, T/C [34]: 3.25%
viability, T/C [35]: 2.59%
viability, T/C [36]: 2.44%
viability, T/C [37]: 5.25%
viability, T/C [38]: 3.97%
viability, T/C [39]: 3.84%
viability, T/C [40]: 3.47%
viability, T/C [41]: 2.83%
viability, T/C [42]: 2.37%

C=C(F)C(=O)N1CCN(c2nc(OCC3CCCN3C)nc3c2CCN(c2cccc4cccc(Cl)c24)C3)CC1CC#N (configuration not stated)
viability, T/C (compound 0.0316 µM): 64.5% and 64.8%
viability, T/C (compound 0.1 µM): 50.8% and 64.2%
viability, T/C (compound 0.316 µM): 48.9% and 63%
viability, T/C (compound 1 µM): 69.4% and 61.5%
viability, T/C (compound 3.16 µM): 66.8% and 77.9%
IC50 (curve of compound): 3.99 µM and > 10 µM

Reference: PubChem BioAssay AID2060619 (Molecular Pharmacology Branch, DTP, NCI, 2025)
